{
  "source": "patent US20100255020A1",
  "about": "“METHOD FOR INDUCING CYTOTOXIC T-CELLS, CYTOTOXIC T-CELL INDUCERS, AND PHARMACEUTICAL COMPOSITIONS AND VACCINES EMPLOYING THEM” (NEC CORPORATION, priority 2007, published 2010)",
  "key": {"[1]": {"tested_on": "malignant tumors", "assay": "Peptide immunotherapy of patients, tumor response by RECIST criteria (CT/MRI)", "assay_type": "in vivo, human", "parameters": "key to RECIST, single lung metastasis / RECIST, total sum of longest diameters of 10 metastatic target lesions / RECIST, pubic bone metastatic tumor / RECIST determination 3 months after starting W10 peptide therapy: CR: all target lesions have disappeared; PR: the sum of the longest diameters of the target lesions decreases by at least 30%; PD: the sum of the longest diameters of the target lesions increases by at least 20%; SD: the change of tumr size is between PR or PD", "experimental": "Among 18 patients, 3 people are illustrated in the style of case reports. […] The mixture was prepared immediately prior to administration. When W10 peptide was administered without petussis vaccine in the safety test, W10 peptide solution was divided into 4 equal portions and injected intradermally at 4 locations in the same manner. A method to measure the diameter of a tumor and a method to analyze peptide-specific T-cells using an HLA-A24 tetramer by flow cytometry are described below.\nThe international RECIST criteria referred to here is an evaluation standard described in Theresse, P. et al., J Natl Cancer Inst. 2000, 92, 205-216. When there is confirmation by helical CT or MRI that all target lesions have disappeared this is defined as CR (complete response), when the sum of the longest diameters of the target lesions decreases by at least 30% this is defined as PR (partial response), when the sum of the longest diameters of the target lesions increases by at least 20% this is defined as PD (progressive disease), and when the change of tumr size is between PR or PD this is defined as SD (stable disease). However, regardless of the presence or absence of a change in the target lesions, when even one new lesion appears this is defined as PD.\nBased on the above-mentioned international RECIST criteria, which is used for evaluation of anticancer drugs, all measurable tumors were selected as target tumors, and change in the SLD of the tumors over the course of the therapy was monitored. In addition, number of all the tumors was counted, regardless of the size of a tumor, every time diagnostic imaging was carried out in order to lookout for new lesions. Diagnostic imaging was carried out in principle once a month by helical CT or MRI. If even one new metastasis appeared, regardless of the change in the primary lesion, it was judged as PD.\nClinical responses were evaluated according to the aforementioned international RECIST criteria for 18 patients who had been treated by immunotherapy using W10+Wc for at least 3 months and one week. Eight cased out of 18 patients were judged as SD, 10 cased were PD. […] In reports on peptide immunotherapy so far, the tumor control rate was limited to a few % up to ten or so % worldwide (Reference Documents 1 to 4). Compared with these already reported cases, this is a good reaction."}, "[2]": {"target": "T1, HLA-A*0206 molecule (Homo sapiens, UniProt P04439, D140Y/D185E/D98H/E176V/E277Q/F33Y/G131W/G231S/I119V/I121R/I166T/I218V/L300P/L318F/N151K/N90K/P208A/P217A/Q86G/Q94H/R138H/R169H/T345S)", "T1 construct": "expressed in transfected cells; host or cells: RA2.6 (mouse TAP-deficient RMAS cells transfected with pMKITneo bearing HLA-A*0206 cDNA)", "assay": "Peptide binding to HLA-A*0206 molecule on RA2.6 cells (flow cytometry, Kd)", "conditions": "HLA-A*0206, RA2.6 cells; read-out: Binding assay data (−log Kd) (converted)", "experimental": "The ability of a peptide to bind to an HLA-A*0206 molecule, which is a product of the HLA-A*0206 gene, was measured using RA2.6 cells (cell line newly generated in Kochi University), wherein cDNA of the HLA-A*0206 gene is introduced into RMAS, which is a mouse TAP (transporter associated with antigen processing)-deficient cell line.\nRA2.6 cells were first cultured overnight at 26° C., during this incubation HLA-A*0206 molecules devoid of bound peptide accumulated. Serial dilutions of peptide were added to these cells and peptide binding was carried out at room temperature for 30 minutes.\nSubsequently, culture was carried out at 37° C. for 3.5 hours, during this incubation empty HLA-A*0206 molecules to which no peptide was bound were denatured, and the tertiary structure was lost.\nThe cells were stained by adding thereto fluorescently-labeled monoclonal antibody BB7.2, which specifically recognizes the peptide-bound HLA-A*0206 molecule, and incubating on ice for 20 minutes.\nSubsequently, the amount of fluorescence per cell was measured using a flow cytometer, and a dissociation constant Kd value was calculated by a method published in the literature (Udaka et al., Immunogenetics, 51, 816-828, 2000)."}, "[3]": {"target": "HLA-A*0201 molecule (Homo sapiens, UniProt P04439, D140Y/D185E/D98H/E176V/E277Q/G131W/G231S/I119V/I121R/I166T/I218V/L300P/L318F/N151K/N90K/P208A/P217A/Q86G/Q94H/R138H/R169H/T345S)", "assay": "Peptide binding to HLA-A*0201 molecule on JY cells (flow cytometry, Kd)", "conditions": "HLA-A*0201, JY cells", "experimental": "The ability of a peptide to bind to an HLA-A*0201 molecule, which is a product of the HLA-A*0201 gene, was measured using strain JY cells expressing the HLA-A*0201 molecule.\nJY cells were first exposed to acidic conditions at a pH of 3.8 for 30 seconds, thus dissociating and removing a β2m light chain and an endogenous peptide, which were noncovalently associated with the HLA-A* 0201 molecule. After neutralization, a reconstitution experiment was carried out.\nThe above-mentioned JY cells and the purified […] were added to serial dilutions of peptide for which the binding ability needs to be measured, and incubation was carried out on ice for 4 hours. HLA-A*0201 molecules that had reassociated up to this time point were stained using the fluorescently-labeled monoclonal antibody BB7.2, a conformation dependent monoclonal Ab specific for an assembled form of HLA-A*0201 molecule.\nSubsequently, the amount of fluorescence per cell was measured using a flow cytometer and a dissociation constant Kd value was calculated by a method published in the literature (Udaka et al., Immunogenetics, 51, 816-828, 2000)."}},
  "note": "Where “and” joins values, the source holds several entries; their conditions need not be identical. Equal values may be shown once. Where no end group is shown, it is not given here.",
  "data": [
    {"sequence": "ALLPAVPSL [W10]", "values": [
      {"measurement": "Duration of tumor control (weeks)", "setting": "[1]; one line per patient case, W10+Wc immunotherapy, weekly intradermal, listed as W10 peptide", "result": "37 weeks and 30 weeks and 32 weeks and 10 weeks and 4 weeks and 0 weeks (6×) and 6 weeks and 17 weeks and 19 weeks and 12 weeks and 33 weeks and 38 weeks"},
      {"measurement": "RECIST determination 3 months after starting W10 peptide therapy", "setting": "[1]; one line per patient case, W10+Wc immunotherapy, listed as W10 peptide", "result": "SD (7×) and SD > PD and PD (the sum of the longest diameters of the target lesions increases by at least 20%) (10×)"},
      {"measurement": "RECIST, pubic bone metastatic tumor", "setting": "[1]; patient KB07-003, maintained for 37 weeks", "result": "SD"},
      {"measurement": "New metastatic tumors", "setting": "[1]; patient KB07-003, since W10 therapy started", "result": "no new metastatic tumors have been found"},
      {"measurement": "Growth of metastatic tumor in the bone (SLD)", "setting": "[1]; patient KB07-005, right femur", "result": "almost stopped"},
      {"measurement": "New distant metastasis", "setting": "[1]; patient KB07-005, throughout the period", "result": "no new distant metastasis was observed"},
      {"measurement": "Growth of tumors expressing WT1", "setting": "[1]; patient KB07-006", "result": "suppressed"},
      {"measurement": "Appearance of new metastatic lesion", "setting": "[1]; patient KB07-006, 13 months after starting W10 peptide", "result": "no appearance of a new metastatic lesion"},
      {"measurement": "RECIST, total sum of longest diameters of 10 metastatic target lesions", "setting": "[1]; patient KB07-006, CT on the 37th week", "result": "PD (the sum of the longest diameters of the target lesions increases by at least 20%)"},
      {"measurement": "RECIST, total sum of longest diameters of 10 metastatic target lesions", "setting": "[1]; patient KB07-006, adenoid cystic carcinoma, up to 32 weeks", "result": "SD"},
      {"measurement": "Kd", "setting": "[2]", "result": 18.2, "unit": "nM"},
      {"measurement": "Binding assay data (−log Kd)", "setting": "[3]", "result": 7.84}
    ]}
  ]
}
